Results on four compounds are retold here after PubChem BioAssay (NCI).

In general, GI50 refers to the concentration at which growth is held to half of that of the control. What is called TGI is the concentration at which net growth stops. A high value points to less potent growth arrest.

Test systems include SW-620 colon; OVCAR-5 ovarian; 786-0 renal; MALME-3M melanoma; HCT-116 colon; NCI-H460 lung; HOP-62 NSCLC; SN12C renal; T-47D breast; CCRF-CEM leukemia.
What all share (assay): DTP human tumour cell line panel, 48 h

SMILES strings stand for the structures.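 These data come from cells grown in 96-well plates and exposed to compound for 48 hours at five concentrations. Abbreviation: GI50, concentration required for 50% inhibition of growth. TGI is the concentration that stops growth completely.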

With `Cc1ccc(-c2nc3sc(C)cn3c2/C=C2\C(=O)Nc3ccc(Cl)cc32)cc1`, the GI50 with SW-620 colon was 19.1 µM; in the assay with OVCAR-5 ovarian, 18.8 µM; in the assay on 786-0 renal it was 10.3 µM; in the assay on MALME-3M melanoma, 14.9 µM; with HCT-116 colon, 12.2 µM; in the assay with NCI-H460 lung, 15.7 µM. Besides, the GI50 is 7.21 µM with HOP-62 NSCLC, 15 µM with SN12C renal, 42.2 µM in the assay with T-47D breast and 29.3 µM in the assay on CCRF-CEM leukemia. The concentration for total growth inhibition (TGI) is 52.1 µM in the assay with SW-620 colon; 38.5 µM in the assay with OVCAR-5 ovarian; 22 µM with 786-0 renal; 35.6 µM in the assay on MALME-3M melanoma; 24.7 µM with HCT-116 colon; 31.9 µM with NCI-H460 lung. Further, the TGI with HOP-62 NSCLC was 20.8 µM; in the assay with SN12C renal, 29.8 µM; with T-47D breast, more than 100 µM; in the assay with CCRF-CEM leukemia, 93.6 µM.
With `CSc1nc2c(c(=O)n1C)C(c1ccccc1)C1=C(N2)/C(=C/c2ccccc2)CCC1` (stereo not given), the GI50 with SW-620 colon is 2.53 µM; with OVCAR-5 ovarian, 71.7 µM; in the assay on 786-0 renal it was 11.7 µM; in the assay on MALME-3M melanoma, 5.87 µM; in the assay on HCT-116 colon, 3.41 µM; in the assay with NCI-H460 lung, 9.87 µM. The GI50 in the assay on HOP-62 NSCLC is 20 µM; in the assay on SN12C renal, 53 µM; in the assay with T-47D breast, 4.15 µM; with CCRF-CEM leukemia, 4.62 µM. Moreover, the TGI in the assay on SW-620 colon was 6.81 µM; in the assay on OVCAR-5 ovarian, more than 100 µM; in the assay with 786-0 renal it was 56.4 µM; in the assay on MALME-3M melanoma it was more than 100 µM; in the assay on HCT-116 colon it was 14.3 µM; with NCI-H460 lung, more than 100 µM. The TGI in the assay with HOP-62 NSCLC, in the assay on SN12C renal, in the assay on T-47D breast and in the assay on CCRF-CEM leukemia was more than 100 µM in each case.
For `COc1ccc(-c2c(-c3ccc(C#N)c(F)c3)nc(N3CCC(N)CC3)n(C)c2=O)cc1F`, the GI50 with SW-620 colon was 24.2 µM; in the assay on OVCAR-5 ovarian, 14.4 µM; with 786-0 renal, 11.7 µM; in the assay on MALME-3M melanoma, 13.4 µM; in the assay on HCT-116 colon, 13.1 µM; in the assay with NCI-H460 lung, 19.1 µM. Besides, the GI50 in the assay with HOP-62 NSCLC was 17.1 µM; in the assay on SN12C renal, 19.3 µM; with T-47D breast, 14 µM; with CCRF-CEM leukemia, 17.6 µM. The TGI in the assay with SW-620 colon is 96.2 µM; in the assay on OVCAR-5 ovarian, 44.2 µM; in the assay with 786-0 renal, 24.7 µM; with MALME-3M melanoma it was 27.5 µM; in the assay with HCT-116 colon, more than 100 µM; in the assay with NCI-H460 lung, 37.1 µM. The TGI in the assay on HOP-62 NSCLC was more than 100 µM; in the assay with SN12C renal it was 79.3 µM; in the assay with T-47D breast it was 46.3 µM; in the assay with CCRF-CEM leukemia it was 53 µM.
As to `Cc1c(C(N)=O)sc2nc(C)n(/N=c3\scc(-c4ccccc4)n3Cc3ccccc3)c(=O)c12`, the GI50 in the assay on SW-620 colon is 3.16 µM; in the assay on OVCAR-5 ovarian, 4.33 µM; with 786-0 renal, 3.82 µM; in the assay with MALME-3M melanoma it was 2.18 µM; in the assay on HCT-116 colon, 2.13 µM; with NCI-H460 lung, 2.65 µM. For the same compound, the GI50 in the assay with HOP-62 NSCLC is 2.82 µM; with SN12C renal, 3.84 µM; in the assay with T-47D breast, 3.25 µM; in the assay on CCRF-CEM leukemia it was 34.2 µM. The TGI in the assay with SW-620 colon is more than 100 µM; in the assay on OVCAR-5 ovarian, more than 100 µM; in the assay with 786-0 renal, more than 100 µM; in the assay with MALME-3M melanoma, more than 100 µM; with HCT-116 colon, 10.3 µM; in the assay on NCI-H460 lung it was 7.34 µM. The total growth inhibition concentration (TGI) is 9.47 µM with HOP-62 NSCLC, more than 100 µM in the assay with SN12C renal, more than 100 µM in the assay on T-47D breast and more than 100 µM in the assay on CCRF-CEM leukemia.
